# Target: Rv0183 (mtbMGL) (Mycobacterium tuberculosis, UniProt O07427)
# Assay: biochemical
# Sequence of Rv0183 (mtbMGL) (O07427 whole entry): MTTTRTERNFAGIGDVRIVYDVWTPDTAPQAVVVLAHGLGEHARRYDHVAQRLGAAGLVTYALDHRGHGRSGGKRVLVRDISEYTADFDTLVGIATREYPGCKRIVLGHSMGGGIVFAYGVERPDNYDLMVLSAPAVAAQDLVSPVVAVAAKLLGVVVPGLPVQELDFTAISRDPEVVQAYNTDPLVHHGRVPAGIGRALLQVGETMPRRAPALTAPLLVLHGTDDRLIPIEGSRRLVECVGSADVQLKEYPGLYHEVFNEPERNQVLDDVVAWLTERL
row,Structure (SMILES),IC50
1,"COc1ccc(-n2nc(C(=O)N3CC[C@@H](O)C3)cc2-c2ccccc2Cl)cc1 [ELF1, (R)-(5-(2-chlorophenyl)-1-(4-methoxyphenyl)-1H-pyrazol-3-yl)(3-hydroxypyrrolidin-1-yl)methanone]",9.55 µM
2,"COc1ccc(Nc2cc(-n3cc(C(=O)N4CC[C@@H](O)C4)cn3)ncn2)cc1 [ELF5, (R)-(3-hydroxypyrrolidin-1-yl)(1-(6-((4-methoxyphenyl)amino)pyrimidin-4-yl)-1H-pyrazol-4-yl)methanone]",8.51 µM
3,"O=C(c1ccc(-c2cnc(-c3cccc(OC(F)(F)F)c3)o2)cc1)N1CC[C@@H](O)C1 [ELF8, (R)-(3-hydroxypyrrolidin-1-yl)(4-(2-(3-(trifluoromethoxy)phenyl)oxazol-5-yl)phenyl)methanone]",4.26 µM
